Entries after “also recorded” stand apart in the source; their conditions may differ.
B1: RSPO1: Wnt agonist R-spondin 1, supplied as 25% conditioned medium (protein, UniProt Q2MKA7 21-263, looked up)
R-spondin-1: SRGIKGKRQRRISAEGSQACAKGCELCSEVNGCLKCSPKLFILLERNDIRQVGVCLPSCPPGYFDARNPDMNKCIKCKIEHCEACFSHNFCTKCKEGLYLHKGRCYPACPEGSSAANGTMECSSPAQCEMSEWSPWGPCSKKQQLCGFRRGSEERTRRVLHAPVGDHAACSDTKETRRCTVRRVPCPEGQKRRKGGQGRRENANRNLARKESKEAGAGSRRRKGQQQQQQQGTVGPLTSAGPA
modifications: conditioned medium
notes: Wnt agonist R-spondin 1, supplied as 25% conditioned medium

Legend:
[1] = system: human ectocervical organoids; assay: Human ectocervical organoid culture: formation, growth, differentiation; assay type: cell-based; conditions: for formation and expansion of squamous stratified organoids from single ectocervical stem cells: Wnt3a and RSPO1 together present in culture medium, human
Procedure: The medium consisted of ADF, 12 mM HEPES and 1% GlutaMax, supplemented with 1% B27, 1% N2, 0.5 μg/ml hydrocortisone (Sigma, #H0888-1G), 10 ng/ml human EGF (Invitrogen, #PHG0311), 100 ng/ml human noggin (Peprotech; #120-10C), 100 ng/ml human FGF-10 (Peprotech, #100-26-25), 1.25 mM N-acetyl-L-cysteine, 10 mM nicotinamide, 2 μM TGF-β R kinase Inhibitor IV, 10 μM ROCK inhibitor (Y-27632), 10 μM forskolin (Sigma, F6886) and 1% penicillin/streptomycin.
(§1) Cells isolated from tissue or the stem cells grown in 2D culture were mixed with 50 μl of ice cold Matrigel (BD, #356231) at a density of 20,000 cells, and the Matrigel droplet was placed in a pre-warmed 24-well plate and allowed to polymerize for 10 min at 37° C. The Matrigel droplet was then overlaid with 500 μl of pre-warmed human ecto- or endocervical medium. Cultures were kept at 37° C., 5% CO2 in a humidified incubator for 2-3 weeks and medium replaced every four days. For passaging the organoids, Matrigel was first dissolved by adding 1 ml of ice cold ADF and pipetting up and down 5 times. Organoids were collected in a 15 ml Falcon tube and a further 4 ml of ice cold ADF medium was added and organoids resuspended well to completely dissolve the Matrigel, followed by centrifugation at 300×g for 5 mins at 4° C. Medium was discarded and the ectocervical and mouse organoids were incubated with 1 ml of TrypLE Express for 30 min at 37° C. followed by mechanical fragmentation using a fire-polished glass Pasteur pipette by vigorous pipetting (8-10 times) to generate single cells. The single cells were then seeded at a 1:10 ratio back into Matrigel for expanding and culturing. Endocervical organoids were subjected to mechanical fragmentation as described above after centrifugation to generate fragments that were seeded back into Matrigel at 1:5 ratio. Matrigel was allowed to polymerize for 10 min at 37° C., overlaid with pre-warmed medium and cultured as described above.
(§2) Stem cells were counted and a defined number resuspended in 50 μl of Matrigel to generate organoids as described above. Between 2-3 weeks after plating images were taken of the whole well and the number and area of organoids formed were determined using ImageJ to calculate organoid forming efficiency.
Organoids were washed with cold PBS five times to remove Matrigel before fixing with 4% paraformaldehyde for 1 h at room temperature (RT) followed by washing with PBS twice. Organoids were then subjected to dehydration in an ascending ethanol series followed by isopropanol and acetone for 20 min each. The dehydrated organoids were paraffin embedded and 5 μm sections cut on a Microm HM 315 microtome. Mouse and human tissues were extensively washed with PBS and fixed using 4% PFA overnight at RT. Samples were subjected to dehydration in an ascending ethanol series followed by isopropanol and xylene (60 mins each) followed by paraffinization using a Leica TP1020 tissue processor. The tissue was embedded and 5 μm sections cut on a microtome. For immunostaining, paraffin sections were deparaffinized and rehydrated, followed by treatment with antigen retrieval solution (Dako, #S1699). Sections were blocked using blocking buffer (1% BSA and 2% FCS in PBS) for 1 h at RT. Primary antibodies were diluted in blocking buffer and incubated for 90 min at RT followed by five PSB washes before 1 h incubation with secondary antibodies diluted in blocking buffer along with Hoechst or Draq5. Sections were washed with PBS five times and mounted using Mowiol. […]

[2] = system: mouse ectocervical organoids; assay: Mouse ectocervical organoid culture: formation and expansion; assay type: cell-based; conditions: for formation and expansion of squamous stratified organoids from single ectocervical stem cells: Wnt3a and RSPO1 together present in culture medium, mouse; for effect of presence or absence of Wnt pathway activators on murine organoid culture: murine ectocervical organoid medium
Procedure: Cervical cells were cultured in ADF medium (Invitrogen, #12634) supplemented with 12 mM HEPES (Invitrogen, #15630-056), 1% GlutaMax (Invitrogen, #35050-038), 1% B27 (Invitrogen, #17504-044), 1% N2 (Invitrogen, #17502048), 50 ng/ml mouse epidermal growth factor (EGF) (Invitrogen, #PMG8043), 100 ng/ml mouse noggin (Peprotech, #250-38-100), 100 ng/ml human fibroblast growth factor (FGF)-10 (Peprotech, #100-26-25), 1.25 mM N-acetyl-L-cysteine (Sigma, #A9165-5G), 10 mM nicotinamide, (Sigma, #N0636), 2 μM TGF-β R Kinase Inhibitor IV (Calbiochem, #616454), 10 μM ROCK inhibitor (Y-27632) (Sigma, #Y0503), 1% penicillin/streptomycin (Gibco, #15140-122) with or without 25% Wnt3A- and 25% R-spondin1-conditioned medium, as described in Willert et al (46) and Farin et al (47).
as §1, §2

Molecule | organoid growth (area of organoids) ([1]; grown in presence of γ-secretase inhibitor (Notch inhibition), FIG. 3H, 11D) | proliferation of organoids (Ki67) ([1]; presence of γ-secretase inhibitor, FIG. 3I) | differentiation and stratification of organoids ([1]; presence of γ-secretase inhibitor, immunolabelling CDH1, Ki67, p63, FIG. 3I) | formation and expansion of squamous stratified organoids from single ectocervical stem cells [2] | effect of presence or absence of Wnt pathway activators on murine organoid culture [2] | formation and expansion of squamous stratified organoids from single ectocervical stem cells [1]
C[C@H](NC(=O)Cc1cc(F)cc(F)c1)C(=O)N[C@@H]1C(=O)N(C)c2ccccc2-c2ccccc21 [DBZ] | reduced organoid growth | reduces proliferation | failed to differentiate and stratify; also recorded: prevents differentiation |  |  | 
Wnt3a |  |  |  | detrimental | not to substantially effect | detrimental
B1 |  |  |  | detrimental | not to substantially effect | detrimental
